The values below are quoted from earlier work in patent US20090233891A1, “Pharmaceutical lotion comprising fluticasone propionate” (GLENMARK GENERICS LTD., priority 2008, published 2009).

Take `CCC(=O)O[C@]1(C(=O)SCF)[C@H](C)C[C@H]2[C@@H]3C[C@H](F)C4=CC(=O)C=C[C@]4(C)[C@@]3(F)[C@@H](O)C[C@@]21C` [Fluticasone propionate, S-(fluoromethyl) 6a, 9-difluoro-11β, 17-dihydroxy-16a-methyl-3-oxoandrosta-1,4-diene-17β-carbothioate, 17-propionate]: the “solubility in 95% ethanol” value (95% ethanol) is “slightly soluble”. For the same compound, for the setting “dimethyl sulfoxide”, the “solubility in dimethyl sulfoxide” value was “freely soluble”. Further, the solubility in dimethylformamide result (dimethylformamide) is listed as “freely soluble”. Moreover, the solubility in methanol entry (methanol) is listed as “slightly soluble”. The solubility in water result (water) is “practically insoluble”.
